Laboratory results published in ChEMBL document CHEMBL1126784, “A selective delta 1 opioid receptor agonist derived from oxymorphone. Evidence for separate recognition sites for delta 1 opioid receptor agonists and antagonists” (J Med Chem, 1993).

Tests used:
[1] = test system: Mus musculus; experiment: Antinociceptive potency in mice using the tail-flick test on icv administration.; assay type: functional
[2] = target: Mu-type opioid receptor (Cavia porcellus, UniProt P97266); experiment: selective binding affinity against mu opioid receptor, using [3H]DAMGO as radioligand
Sequence of Mu-type opioid receptor (P97266 whole entry): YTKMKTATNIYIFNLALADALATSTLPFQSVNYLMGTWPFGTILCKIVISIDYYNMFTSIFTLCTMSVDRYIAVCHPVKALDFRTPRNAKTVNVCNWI

[3] = target: Kappa-type opioid receptor (Cavia porcellus, UniProt P41144); experiment: selective binding affinity against kappa opioid receptor, using [3H]U-69593 as radioligand
Sequence of Kappa-type opioid receptor (P41144 whole entry): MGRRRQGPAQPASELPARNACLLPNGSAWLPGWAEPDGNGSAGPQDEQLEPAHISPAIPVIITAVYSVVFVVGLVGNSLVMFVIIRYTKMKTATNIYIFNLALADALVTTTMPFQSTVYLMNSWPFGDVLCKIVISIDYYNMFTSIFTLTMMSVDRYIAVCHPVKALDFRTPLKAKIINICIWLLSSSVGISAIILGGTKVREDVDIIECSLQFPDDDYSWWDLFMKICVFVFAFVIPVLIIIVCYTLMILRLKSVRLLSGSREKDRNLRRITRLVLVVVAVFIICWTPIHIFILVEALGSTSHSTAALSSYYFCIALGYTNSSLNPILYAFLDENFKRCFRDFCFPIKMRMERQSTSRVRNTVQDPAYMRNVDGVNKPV

SMILES	ED50 [1] [nM mouse-1]	Ki [2] [nM]	Ki [3] [nM]
CC1(C)SSC(C)(C)[C@@H](NC(=O)[C@@H](N)Cc2ccc(O)cc2)C(=O)NCC(=O)N[C@@H](Cc2ccccc2)C(=O)N[C@H]1C(=O)O	11.5	–	–
CN1CC[C@]23c4c5ccc(O)c4O[C@H]2C(=O)C2(Cc4ccccc4C2)C[C@@]3(O)[C@H]1C5 [SPIROINDANYLOXYMORPHONE]	1.7	10.6	588
